{"source": "patent US10233198B2", "about": "“Pro-drugs of NSAIAs with very high skin and membranes penetration rates and their new medicinal uses” (Techfields Pharma Co., Ltd., priority 2007, dated 2019)", "key": {"[1]": {"test": "In vivo penetration through skin of intact rats; distribution in plasma and tissues"}, "[2]": {"test_system": "human breast cancer cells (BCAP-37)", "test": "Anti-tumor activity, human breast cancer xenograft in nude mice, topical", "settings": "day 42; 30 μl of 5% (1.5 mg) topically every 8 hours; BCAP-37 xenograft; in g (unit assumed)", "protocol": "For evaluation of anti-tumor activity of the pro-drugs of NSAIAs, human breast cancer cells (BCAP-37, 2-3 mm^3 of tumor tissue was used in each mouse) were subcutaneously xenografted into nude mice (BALE, 12 groups, 7 mice each group). After 14 days, the tumors were growing to the size of 50±10 mm^3 (0.05 ml). Then 30 μl of 5% (equal to 1.5 mg of the pro-drugs) diethylaminoethyl acetylsalicylate.acetylsalicylic acid salt (P-1, in acetone); 1-piperidinepropyl 2[(2,6-dichlorophenyl)amino]benzene acetate.AcOH (P-2, in water), 1-pyrrolidinepropyl 2-(3-benzoylphenyl) propionate.AcOH (P-3, in water), 4-piperidinemethyl 2-(3-phenoxyphenyl)propionate.AcOH (P-4, in water), 3-piperidinemethyl 2-(ρ-isobutylphenyl) propionate.AcOH (P-5, in water), diethylaminoethyl 1-(p-chlorobenzoyl)-5-methoxy-2-methylindole 3-acetate.AcOH (P-11, in water), 2-(4-morpholinyl)ethyl (Z)-5-fluoro-2-methyl-1-[(4-methylsulfinyl) phenylmethylene]-1H-indene-3-acetate.AcOH (P-12, in water), diethylaminoethyl 2-(2,4-dichlorophenoxy)benzeneacetate.AcOH (P-19, in water), diethylaminoethyl 2-(8-methyl-10, 11-dihydro-11-oxodibenz(b,f)oxepin-2-yl)propionate.AcOH (P-37, in water), 1-pyrrolidinepropyl 2-[[(3-(trifluoromethyl)phenyl)amino]benzoate.AcOH (P-48, in water), 4-N,N-dimethylaminobutyryloxy-2-methyl-N-2-pyridinyl-2H,1,2-benzothiazine-3-carb oxamide 1,1-dioxide.HCl (P-51, in acetone) was topically applied to the human breast cancer cells-implanted area (near the front leg) every 8 hours."}, "[3]": {"test_system": "human colon cancer cells (LS174J)", "test": "Anti-tumor activity, human colon cancer xenograft in nude mice, topical", "settings": "for Weight of nude mice: day 30, about 30 μl of 5% (1.5 mg) topically every 8 hours", "protocol": "In the second anti-tumor experiment, human colon cancer cells (LS174J, 2-3 mm^3 of tumor tissue was used in each mouse) were subcutaneously xenografted into nude mice (BALB). After 7 days, the tumors were growing to the size of 55±10 mm^3 (0.055 ml). Then about 30 μl of 5% (equal to 1.5 mg of the pro-drugs) diethylaminoethyl acetylsalicylate.acetylsalicylic acid salt (P-1, in acetone); 1-piperidinepropyl 2[(2,6-dichlorophenyl)amino]benzene acetate.AcOH (P-2, in water), 1-pyrrolidinepropyl 2-(3-benzoylphenyl) propionate.AcOH (P-3, in water), 4-piperidinemethyl 2-(3-phenoxyphenyl)propionate.AcOH (P-4, in water), 3-piperidinemethyl 2-(ρ-isobutylphenyl) propionate.AcOH (P-5, in water), diethylaminoethyl 1-methyl-5-(4-methylbenzoyl)-1H-pyrrole-2-acetate.AcOH (P-13, in water), 2-(4-morpholinyl)ethyl 2-amino-3-benzoylbenzeneacetateAcOH (P-16, in water), diethylaminoethyl 2-(10,11-dihydro-10-oxodibenzo(b,f)thiepin-2-yl)propionate.AcOH (P-36), diethylaminoethyl 2-[(2,3-dimethylphenypamino]benzoate.AcOH (P-46, in water), diethylaminoethyl 2-[(2,6-dichloro-3-methylphenyl)amino]benzoate.AcOH (P47, in water), N-(2-thiazoyl)-4-N,N-dimethylaminobutyryloxy-2-methyl-2H,1,2-benzothiazine-3-car boxamide 1,1-dioxide.HCl (P-52, in acetone) was topically applied to the human colon cancer cells-implanted area (near the front leg) every 8 hours."}, "[4]": {"test_system": "SLAC/GK rats, type 2 diabetes", "test": "Blood lipid levels in type 2 diabetic rats, transdermal", "type": "in vivo", "description": "(§1) The pro-drugs in this invention lower blood glucose levels in rat models (SLAC/GK, type 2 diabetes, n=7). 50% acetone solution of diethylaminoethyl acetylsalicylate.acetylsaficylic acid salt (P-1, in acetone); 4-acetamidophenyl salicylyldimethylaminobutyrate.HCl (P-6), diethylaminoethyl 5-(2,4-difluorophenyl) acetylsalicylate.5-(2,4-difluorophenyl) acetylsalicylic acid salt (P-8), diethylaminoethyl salicylsalicylate.AcOH (P-9), diethylaminoethyl salicylate.AcOH (P-10), diethylaminoethyl 5-acetamido-acetylsalicylate (P-58), diethylaminoethyl acetylsalicylsalicylate. acetylsalicylsalicylic acid salt (P-59), diethylaminoethyl acetylsalicylsalicylate. acetylsalicylsalicylsalicylic acid salt (P-60) (equal to of 20 mg/kg of NSAIAs) were administered transdermally to the backs (about 1.5 cm^2) of rats (fur was shaved) once per day (at 8 am) for 5 weeks. The blood glucose levels were measured once every 3 days at 4 pm (no fasting) from the second week to the fifth week. The blood lipid levels were measured at the end of the fifth week."}, "normal rats": {"test_system": "normal rats", "test": "Blood glucose in normal rats, transdermal", "type": "in vivo", "settings": "no fasting; for Blood glucose, normal rats, Baseline: baseline of the treatment group"}, "[5]": {"test_system": "SLAC/GK rats, type 2 diabetes", "test": "Blood glucose in type 2 diabetic rats, transdermal", "type": "in vivo", "settings": "no fasting; for Blood glucose, diabetic rats, Baseline: baseline of the treatment group", "description": "as §1"}, "[6]": {"test_system": "SLAC:NOD-IDDM mice, type 1 diabetes", "test": "Blood glucose in type 1 diabetic mice, transdermal", "type": "in vivo", "settings": "no fasting; for Blood glucose, type I diabetic mice, Baseline: baseline of the treatment group; for Blood glucose, type I diabetic mice, Average: transdermal, equal to 20 mg/kg of NSAIAs once per day for 7 weeks, fourth to seventh week", "description": "The pro-drugs in this invention lower blood glucose levels in mouse models (SLAC:NOD-IDDM, type 1 diabetes, n=7). 20% acetone solution of diethylaminoethyl acetylsalicylate.acetylsalicylic acid salt (P-1, in acetone); 4-acetamidophenyl salicylyldimethylaminobutyrate.HCl (P-6), diethylaminoethyl 5-(2,4-difluorophenyl) acetylsalicylate.5-(2,4-difluorophenyl) acetylsalicylic acid salt (P-8), diethylaminoethyl salicylsalicylate.AcOH (P-9), diethylaminoethyl salicylate.AcOH (P-10), diethylaminoethyl 5-acetamido-acetylsalicylate (P-58), diethylaminoethyl acetylsalicylsalicylate. acetylsalicylsalicylic acid salt (P-59), diethylaminoethyl acetylsalicylsalicylate. acetylsalicylsalicylsalicylic acid salt (P-60) (equal to of 20 mg/kg of NSAIAs) were administered transdermally to the backs (about 1 cm^2) of mice (fur was shaved) once per day (at 8 am) for 7 weeks. The blood glucose levels were measured once every 3 days at 3 pm (no fasting) from the fourth week to the seventh week."}, "Chinese White rabbits [7]": {"test_system": "Chinese White rabbits", "test": "Autologous blood clot pulmonary embolism model, thrombus propagation", "type": "in vivo", "settings": "15 mg/kg topically on the back; after 2 days", "protocol": "Eighteen Chinese White rabbits weighing between 3.0 and 3.5 kg (aged 6-7 months) were selected and divided into three groups (control, P-1 and […] groups, n=6). One hour before the experiment, thrombi were made by aspirating venous blood (1 ml) into a sterilized bottle to clot. To avoid fragmentation and slow lysis, the autologous blood clots were stabilized in temperature-controlled (70° C.) distilled water for 10 min. After anesthesia, the femoral veins were exposed and distally isolated, and autologous blood clots (0.05 g/kg) were injected through an indwelling catheter (20GA), which had been placed in the femoral vein isolated earlier. 50% acetone solution of diethylaminoethyl acetylsalicylate.acetylsalicylic acid salt (P-1, in acetone, 15 mg/kg) and diethylaminoethyl acetylsalicylsalicylate.acetylsalicylsalicylic acid salt (P-59, 15 mg/kg) were topically applied to the back of the rabbits. After 2 days, rabbits were euthanized with an excessive intravenous injection of sodium amobarbital (60 mg/kg). The lungs and hearts were isolated to observe whether thrombi were present in the pulmonary arteries. The lungs were immersed in 10% formalin for 24 h. Consecutive transverse sections along the obstructed pulmonary arteries were paraffin-embedded and stained with hematoxylin-eosine. […]"}, "Chinese White rabbits [8]": {"test_system": "Chinese White rabbits", "test": "Malassezia-induced psoriasis-like lesions", "type": "in vivo", "settings": "5% aqueous solution applied twice per day; 10 days after the application", "description": "COX-1 and COX-2 play a very important role in animal immune-responses. NSAIAs inhibite COX-1 and COX-2. The pro-drugs of NSAIAs in this invention may be very useful for treating psoriasis, discoid lupus erythematosus, systemic lupus erythematosus (SLE), and other autoimmune diseases. Heavy suspensions of Malassezia [Rosenberg, E. W., et al., Mycopathologia, 72, 147-154 (1980)] were applied to the shaved skin on the backs of the Chinese white rabbits (n=4×6) twice (at 7 am and 7 pm) per day for 2 weeks, lesions similar to psoriasis resulted."}, "[9]": {"settings": "prodrug versus testosterone (TS); cited from earlier work"}, "[10]": {"settings": "4 hours after 20% P-2 in 1 ml ethanol on about 5 cm^2 of rat back"}}}
{"smiles": "CC(C(=O)O)c1cccc(C(=O)c2ccccc2)c1", "note": "(stereo not shown) [ketoprofen, reference compound]", "values": [{"measurement": "Drug found in rat tissues or plasma after topical application of the parent drug itself", "setting": "[1]; 4 hours after 20% parent drug in 1 ml ethanol on about 5 cm^2 of rat back, blood, liver, kidney, brain", "value": "None of these drugs was found"}]}
{"smiles": "CC(=O)O.O=C(OCCCN1CCCC1)c1ccccc1Nc1cccc(C(F)(F)F)c1", "note": "[P-48]", "values": [{"measurement": "Weight of nude mice", "setting": "[2]", "value": "22 ± 3"}]}
{"smiles": "CN(C)CCCC(=O)OC1=C(C(=O)Nc2nccs2)N(C)S(=O)(=O)c2ccccc21.Cl", "note": "[P-52, N-(2-thiazoyl)-4-N,N-dimethylaminobutyryloxy-2-methyl-2H,1,2-benzothiazine-3-car boxamide 1,1-dioxide.HCl]", "values": [{"measurement": "Tumor size", "setting": "[3]; day 30, about 30 μl of 5% (1.5 mg) topically every 8 hours from day 7", "value": "690 ± 250", "unit": "mm^3"}]}
{"smiles": "CC(=O)O.O=C(Cc1ccccc1Nc1c(Cl)cccc1Cl)OCCCN1CCCCC1", "note": "[P-2, 1-piperidinepropyl 2[(2,6-dichlorophenyl)amino]benzene acetate.AcOH]", "values": [{"measurement": "Weight of nude mice", "setting": "[3]", "value": "22 ± 2"}, {"measurement": "Brain level of prodrug or metabolite", "setting": "[1]; [10]", "value": "25 ± 6", "unit": "µg/g"}, {"measurement": "Kidney level of prodrug or metabolite", "setting": "[1]; [10]", "value": "20 ± 6", "unit": "µg/g"}, {"measurement": "Liver level of prodrug or metabolite", "setting": "[1]; [10]", "value": "22 ± 8", "unit": "µg/g"}, {"measurement": "Plasma level of prodrug or metabolite", "setting": "[1]; [10]", "value": "40000 ± 10000", "unit": "ng/mL"}, {"measurement": "Weight of nude mice", "setting": "[2]", "value": "22 ± 2"}]}
{"smiles": "CC(=O)Oc1ccccc1C(=O)O.CCN(CC)CCOC(=O)c1ccccc1OC(C)=O", "note": "[P-1, diethylaminoethyl acetylsalicylate.acetylsalicylic acid salt]", "values": [{"measurement": "Triglycerides, Baseline", "setting": "[4]; baseline of the treatment group", "value": "5.9 ± 0.5", "unit": "mmol/L"}, {"measurement": "Blood glucose, normal rats, Baseline", "setting": "normal rats", "value": "6.4 ± 1", "unit": "mmol/L"}, {"measurement": "Blood glucose, normal rats, Average", "setting": "normal rats; transdermal, equal to 20 mg/kg of NSAIAs once per day for 5 weeks, second to fifth week", "value": "6.3 ± 1", "unit": "mmol/L"}, {"measurement": "Blood glucose, diabetic rats, Baseline", "setting": "[5]", "value": "16.1 ± 3", "unit": "mmol/L"}, {"measurement": "Blood glucose, type I diabetic mice, Baseline", "setting": "[6]", "value": "26.1 ± 5", "unit": "mmol/L"}, {"measurement": "Blood glucose, type I diabetic mice, Average", "setting": "[6]", "value": "6.5 ± 1", "unit": "mmol/L"}, {"measurement": "Histology of lung tissue and vascular walls after clot injection", "setting": "Chinese White rabbits [7]", "value": "both lung tissue and vascular walls were normal"}]}
{"smiles": "CC(=O)O.CCN(CC)CCOC(=O)Cc1ccc(C(=O)c2ccc(C)cc2)n1C", "note": "[P-13, diethylaminoethyl 1-methyl-5-(4-methylbenzoyl)-1H-pyrrole-2-acetate.AcOH]", "values": [{"measurement": "Weight of nude mice", "setting": "[3]", "value": "21 ± 2"}, {"measurement": "Psoriasis-like lesions", "setting": "Chinese White rabbits [8]", "value": "the lesions were resolved"}]}
{"smiles": "CC(=O)Oc1ccccc1C(=O)Oc1ccccc1C(=O)O.CCN(CC)CCOC(=O)c1ccccc1OC(=O)c1ccccc1OC(C)=O", "note": "[P-59, diethylaminoethyl acetylsalicylsalicylate. acetylsalicylsalicylic acid salt]", "values": [{"measurement": "Triglycerides, Average", "setting": "[4]; end of fifth week, transdermal, equal to 20 mg/kg of NSAIAs once per day", "value": "2.9 ± 0.2", "unit": "mmol/L"}, {"measurement": "Blood glucose, normal rats, Baseline", "setting": "normal rats", "value": "7.2 ± 1", "unit": "mmol/L"}, {"measurement": "Blood glucose, diabetic rats, Baseline", "setting": "[5]", "value": "16.3 ± 3", "unit": "mmol/L"}, {"measurement": "Blood glucose, diabetic rats, Average", "setting": "[5]; transdermal, equal to 20 mg/kg of NSAIAs once per day for 5 weeks, measured every 3 days, second to fifth week", "value": "8.7 ± 1", "unit": "mmol/L"}, {"measurement": "Blood glucose, type I diabetic mice, Baseline", "setting": "[6]", "value": "24.3 ± 3", "unit": "mmol/L"}, {"measurement": "Blood glucose, type I diabetic mice, Average", "setting": "[6]", "value": "8.7 ± 1", "unit": "mmol/L"}, {"measurement": "Histology of lung tissue and vascular walls after clot injection", "setting": "Chinese White rabbits [7]", "value": "both lung tissue and vascular walls were normal"}]}
{"smiles": "CN(C)CCCC(=O)O[C@H]1CC[C@H]2[C@@H]3CCC4=CC(=O)CC[C@]4(C)[C@H]3CC[C@]12C.Cl", "note": "[TSBH, testosteronyl-4-dimethylaminobutyrate.HCl]", "values": [{"measurement": "Diffusion through human skin, times faster than the drug (TS) itself", "setting": "[9]", "value": "~60", "unit": "times"}]}
{"smiles": "CC(=O)O.CCN(CC)CCOC(=O)Cc1c(C)n(C(=O)c2ccc(Cl)cc2)c2ccc(OC)cc12", "note": "[P-11, diethylaminoethyl 1-(p-chlorobenzoyl)-5-methoxy-2-methylindole 3-acetate.AcOH]", "values": [{"measurement": "Weight of nude mice", "setting": "[2]", "value": "21 ± 2"}]}
{"smiles": "CC(=O)O.CCN(CC)CCOC(=O)Cc1cccc(C(=O)c2ccc(Br)cc2)c1N", "note": "[P-17, diethylaminoethyl 2-amino-3-(4-bromo-benzoyl)benzeneacetate.AcOH]", "values": [{"measurement": "Psoriasis-like lesions", "setting": "Chinese White rabbits [8]", "value": "the lesions were resolved"}]}
